US20190119282A1, “IMIDAZOPYRIDAZINES USEFUL AS INHIBITORS OF THE PAR-2 SIGNALING PATHWAY” (Vertex Pharmaceuticals Incorporated, priority 2013, published 2019)
Marks after values point to notes of the source that are not given here.

Tests used:
[1] = system: UTP-stimulated Ca2+ response in HT-29 cells; assay: Ca FLIPR TETRA assay, ANTAGONIST mode, stimulation with 0.6 μM UTP; assay type: cell-based, human; conditions: Homo sapiens, HT-29 cells
In short: (§1)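 HT-29 cells grown overnight in 1% FBS McCoy's medium were loaded with calcium 5 dye (45 min 37 °C, 15 min r.t.). Compounds were added and Ca2+ read for direct activation, then after 30 min at r.t. cells were stimulated with 8 μM SLIGKV, 1 U/mL thrombin, 3.1 U/mL trypsin or 0.6 μM UTP (final).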

[2] = molecular target: T1, PAR2 (HT-29 cells, SLIGKV activation) (Homo sapiens, UniProt P55085); assay: Ca FLIPR TETRA assay, ANTAGONIST mode, stimulation with 8 μM SLIGKV; assay type: cell-based; conditions: HT-29 cells
T1 construct: host or cells: HT-29 cells
T1 sequence (P55085 26-397): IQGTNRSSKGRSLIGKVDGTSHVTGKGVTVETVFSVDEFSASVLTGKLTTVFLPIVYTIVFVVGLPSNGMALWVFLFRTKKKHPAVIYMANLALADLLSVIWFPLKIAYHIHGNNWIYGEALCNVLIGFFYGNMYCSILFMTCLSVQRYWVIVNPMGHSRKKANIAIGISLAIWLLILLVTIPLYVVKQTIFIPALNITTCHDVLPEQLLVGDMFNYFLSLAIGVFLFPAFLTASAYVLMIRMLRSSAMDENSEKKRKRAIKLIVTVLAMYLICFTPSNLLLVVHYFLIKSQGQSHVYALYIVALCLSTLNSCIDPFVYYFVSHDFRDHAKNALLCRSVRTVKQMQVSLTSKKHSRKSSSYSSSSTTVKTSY
In short: as §1

[3] = In vivo rat pharmacokinetics (intravenous and oral); conditions: plasma; for clearance: intravenous 0.5 to 1 mg/kg, read-out: Clp; for Vd: intravenous, read-out: Vss; for bioavailability: oral by gavage; for half-life: read-out: T ½ (converted)
Procedure: Example 61: Protocol for Testing PAR2 Compounds In Vivo Rat Pharmacokinetics Experiments
Compounds delivered by intravenous route were formulated using a solution formulation consisting of 5% N-methylpyrrolidone 10% Vitamin E-TPGS and 85% water (v/v/) or a solution formulation consisting of 25% N-methylpyrrolidone 35% polyethylene glycol 400 and 40% water (v/v/). Intravenous formulations were administered by a bolus injection (over approximately 10 seconds) using a hypodermic needle attaches to a syringe (tail vein). The dose volume was varied from 1 to 2 mL/kg and the dose was varied from 0.5 to 1 mg/kg. Compounds delivered orally were formulated as a solution formulation consisting of 5% N-methylpyrrolidone 10% Vitamin E-TPGS and 85% water (v/v/) or as fine suspension using a cellulose derivative suspending agent with or without the addition of a wetting agent/surfactant. Milling of large particles was performed as needed to reduce particle size using focused electroacoustic milling, homogenization or low energy media milling. A spray-dried solid dispersion was prepared for key compounds using 1:1 combination with cellulose derivatives. Test compounds were administered orally by gavage using a gavage plastic needle attached to a syringe. The dose volume was varied from 5 to 10 mL/kg and the dose was varied from 1 to 600 mg/kg.
Rats were bled by venipuncture (jugular vein) and the samples were collected into tubes containing K3EDTA. The tubes were placed on wet ice until processed. The samples were centrifuged for approximately 10 minutes (at approximately 4° C.) within approximately 30 minutes of collection to prepare plasma or diluted in citrate buffer (1:3) and stored frozen (approximately −30° C.). Thawed plasma or whole blood samples were extracted by protein precipitation using an organic solvent followed by centrifugation. The supernatants were separated by high-performance liquid chromatography coupled to mass spectrometry detection. A calibration curve was prepared using reference standard compounds spiked into either blank plasma or whole blood matrices and extracted similarly to unknown samples. Pharmacokinetic parameters were calculated using non-compartmental analysis.

[4] = molecular target: T2, PAR2 (HT-29 cells, trypsin activation) (Homo sapiens, UniProt P55085); assay: Ca FLIPR TETRA assay, ANTAGONIST mode, stimulation with 3.1 U/mL trypsin; assay type: cell-based; conditions: HT-29 cells
T2 construct: host or cells: HT-29 cells
T2 sequence (P55085 26-397): T1 sequence (P55085 26-397)
In short: as §1

[5] = system: Thrombin-stimulated Ca2+ response in HT-29 cells; assay: Ca FLIPR TETRA assay, ANTAGONIST mode, stimulation with 1 U/mL Thrombin; assay type: cell-based, human; conditions: Homo sapiens, HT-29 cells
In short: as §1

[6] = system: carrageenan-induced paw edema; assay: Rat carrageenan-induced paw edema model; assay type: in vivo, Sprague Dawley rats; conditions: given before carrageenan challenge
Procedure: Male Sprague Dawley rats and BALB/c mice were housed in groups in a temperature controlled room and were acclimatized in the animal facility for at least three days prior to use. Experiments were performed during the light phase of the cycle. Animals have food and water ad libitum.
Example 63: Rat Carrageenan-Induced Paw Edema Model
Peripheral inflammation was induced by intra-plantar administration of 100 ul of a 1% w/volume (in saline) carrageenan solution under isoflurane anesthesia. The degree of swelling was assessed using the plethysmometer at 2-3-4-5-6 h after carrageenan injection. Test compound or vehicle (0.5% MC/0.1% SDS) was systemically administered at the indicated doses in a volume of 5 mL/kg either I-3 hour before carrageenan challenge (Table 9) or 2 hours post carrageenan challenge (Table 10).
Data are expressed as the mean % effect. Statistical significance was assessed using t-test for comparison between naive and inflamed rats, and one-way ANOVA followed by post-hoc comparison test for overall drug effectiveness. A difference between groups is considered significant with a p value of <0.05. *, p<0.05; **, p<0.01; ***, p<0.001 vs. vehicle.

[7] = stimulation with 3.1 U/mL trypsin
[8] = stimulation with 1 U/mL Thrombin
[9] = antagonist mode, stimulation with 0.6 μM UTP
[10] = antagonist mode, stimulation with 8 μM SLIGKV
[11] = antagonist mode, stimulation with 3.1 U/mL trypsin
[12] = antagonist mode, stimulation with 1 U/mL Thrombin

Compound	IC50 ([1]; stimulation with 0.6 μM UTP) [µM]	IC50 ([2]; stimulation with 8 μM SLIGKV) [µM]	clearance [3] [L/h/kg]	Vd [3] [L/kg]	bioavailability [3] [%]	half-life [3] [h]	IC50 [4, 7] [µM]	IC50 [5, 8] [µM]	IC50 [1, 9] [µM]	IC50 [2, 10] [µM]	IC50 [4, 11] [µM]	IC50 [5, 12] [µM]	also measured
Cc1cc(-c2ccc(F)cc2)nn2cc(C(=O)N3CCN(C(=O)[C@H](O)CC(C)(C)C)[C@@H](C)C3)nc12 [Compound I-9, (R)-1-((S)-4-(6-(4-Fluorophenyl)-8-methylimidazo[1,2-b]pyridazine-2-carbonyl)-2-methylpiperazin-1-yl)-2-hydroxy-4,4-dimethylpentan-1-one]	> 5	0.009	1.3	1.4	57	1.2	0.11	> 5	–	–	–	–	–
CC(C)c1cc(-c2ccc(F)cc2)nn2cc(C(=O)N3CCN(C(=O)C4(O)CCOCC4)CC3(C)C)nc12 [Compound I-27, [6-(4-fluorophenyl)-8-isopropyl-imidazo[1,2-b]pyridazin-2-yl]-[4-(4-hydroxytetrahydropyran-4-carbonyl)-2,2-dimethyl-piperazin-1-yl]methanone]	42	0.059	–	–	–	–	0.25	35	–	–	–	–	% inhibition of carrageenan induced paw edema ([6]; dose 3 mg/kg): 16%; % inhibition of carrageenan induced paw edema ([6]; dose 6 mg/kg): 25* %; % inhibition of carrageenan induced paw edema ([6]; dose 10 mg/kg): 30%; % inhibition of carrageenan induced paw edema ([6]; dose 20 mg/kg): 33** %; % inhibition of carrageenan induced paw edema ([6]; dose 30 mg/kg): 31* %; % inhibition of carrageenan induced paw edema ([6]; dose 60 mg/kg): 30** %
CC1(C)C(=O)NCCN1C(=O)c1cn2nc(-c3ccc(F)cc3)cc(C3CCOCC3)c2n1 [Compound I-29, 4-[6-(4-fluorophenyl)-8-tetrahydropyran-4-yl-imidazo[1,2-b]pyridazine-2-carbonyl]-3,3-dimethyl-piperazin-2-one]	> 50	0.24	0.216	1.8	71	6.7	0.39	> 50	–	–	–	–	–
CC(C)(O)C(=O)N1CCN(C(=O)c2cn3nc(-c4ccc(F)cc4)cc(C4(C)CC4)c3n2)C(C)(C)C1 [Compound I-32, 1-[4-[6-(4-fluorophenyl)-8-(1-methylcyclopropyl)imidazo[1,2-b]pyridazine-2-carbonyl]-3,3-dimethyl-piperazin-1-yl]-2-hydroxy-2-methyl-propan-1-one]	> 50	0.017	1.76	2.2	39	1.4	0.021	> 50	–	–	–	–	–
C[C@@H]1C[C@H](c2cc(-c3ccc(F)cc3)nn3cc(C(=O)N4CCN(C(=O)[C@H]5C[C@](O)(C(F)(F)F)C5)CC4(C)C)nc23)C[C@H](C)O1 [Compound I-213]	–	–	–	–	–	–	–	–	> 1	0.0035	0.0054	> 1	% inhibition of carrageenan induced paw edema ([6]; dose 7 mg/kg): 36* %
CC(C)(C)c1cc(-c2ccc(F)cc2)nn2cc(C(=O)N3CCN(C(=O)c4nc[nH]n4)CC3(C)C)nc12 [Compound I-227]	–	–	–	–	–	–	–	–	0.42	0.0007	0.0016	0.57	% inhibition of carrageenan induced paw edema ([6]; dose 0.3 mg/kg): 35* %; % inhibition of carrageenan induced paw edema ([6]; dose 10 mg/kg): 64** %
CC(C)(C)c1cc(-c2ccc(F)cc2)nn2cc(C(=O)N3CCN(C(=O)c4cn[nH]c4)CC3(C)C)nc12 [Compound I-228]	–	–	–	–	–	–	–	–	0.59	0.0006	0.0008	0.59	% inhibition of carrageenan induced paw edema ([6]; dose 10 mg/kg): 48** %
CC(C)c1cc(-c2ccc(C(F)(F)F)c(F)c2)nn2cc(C(=O)N3CCN(C(=O)C(C)(C)O)CC3(C)C)nc12 [Compound I-252]	–	–	0.25	1.49	92	5.85	–	–	> 1	0.0026	0.0067	> 1	–
Cc1cc(C(=O)N2CCN(C(=O)c3cn4nc(-c5ccc(F)cc5)cc(C(C)C)c4n3)C(C)(C)C2)[nH]n1 [Compound I-303]	–	–	0.429	2.04	69	5.36	–	–	> 1	0.002	0.002	> 1	–
CC(C)(C)c1cc(C2CCC(F)(F)CC2)nn2cc(C(=O)N3CCN(C(=O)[C@H]4C[C@@](C)(O)C4)CC3(C)C)nc12 [Compound I-452, [8-tert-butyl-6-(4,4-difluorocyclohexyl)imidazo[1,2-b]pyridazin-2-yl]-[4-(3-hydroxy-3-methyl-cyclobutanecarbonyl)-2,2-dimethyl-piperazin-1-yl]methanone]	–	–	0.434	1.96	67	3.62	–	–	11.6	0.0033	0.0062	7.85	–
CC(C)(C)c1cc(-c2ccc(F)cc2)nn2cc(C(=O)N3CCN(C(=O)[C@H]4CC[C@@](C)(C(=O)O)CC4)CC3(C)C)nc12 [Compound I-563, (1S,4S)-4-(4-(8-(tert-butyl)-6-(4-fluorophenyl)imidazo[1,2-b]pyridazine-2-carbonyl)-3,3-dimethylpiperazine-1-carbonyl)-1-methylcyclohexane-1-carboxylic acid]	–	–	3.7	1.19	15	0.413	–	–	–	–	–	–	IC50 ([1]; antagonist mode, 0.6 μM UTP): > 1 µM; IC50 ([2]; antagonist mode, 8 μM SLIGKV): 0.0003 µM; IC50 ([4]; antagonist mode, 3.1 U/mL trypsin): 0.0004 µM; IC50 ([5]; antagonist mode, 1 U/mL Thrombin): > 1 µM
